Assay results reported in US12447135B2 (University of South Florida, priority 2021, dated 2025).

Experiments:
FFAR2 signaling = test: Western blot of phospho-ERK1/2 in SK-N-SH cells (FFAR2 signal activation); format: cell-based, human; conditions: 10 μM, 30 min
Experimental: To determine the FFAR2 signal activating property of selected compounds, SK-N-SH cells were treated with 10 μM of shortlisted compounds for 30 min at 37° C. and harvested for total protein extraction. […] After sonication, cell extracts were centrifuged at 8,000×g for 10 min at 4° C., and the supernatant was separated in a fresh tube. The total protein concentration of the supernatant was measured using a BCA protein assay kit. An equal amount of total protein (45 μg) from each sample was dissolved in loading buffer and loaded in 4% stacking gel and 10% separating SDS-PAGE gel and resolved at 100 V. Proteins were transferred on a 0.22 μm PVDF membrane and blots were developed with anti-ERK1/2, anti-phosphoERK1/2, ubiquitin (P4D1), and Aβ (6E10) primary antibodies followed by their secondary antibodies and bands were visualized using the Pierce™ Fast Western Blot Kit, ECL Substrate acquired using Syngene Pxi. Band densities were also quantified using NIH ImageJ software. β-actin was used as an internal control.

proteasome = test: Proteasome activity assay in brain of APP/PS1 mice; format: in vivo; conditions: 80 mg/kg daily oral gavage, 3 months
Experimental: Brains were collected and immediately homogenized in proteasome lysis buffer and proteasome activity was measured as described below. All the animal procedures and experiments were approved by the institutional animal care and use committee (IACUC) of the Wake Forest School of Medicine and the University of South Florida.
The CL2006 strain, SK-N-SH cells, and brain tissues were sonicated in a lysis buffer (150 mM NaCl, 50 mM HEPES, 2 mM DTT, 20 mM NaF, 5 mM EDTA, 2.5 mM sodium pyrophosphate, 1 mM sodium orthovanadate, and 1 mM α-glycerophosphoric acid) and then centrifuged at 15,000 g at 4° C. for 15 min. Total protein was assayed using BCA kit and 20 μg protein was mixed with 140 μM suc-leu-leu-val-tyr-7-amino-4-methylcou-marin (AMC) in a proteasome activity assay buffer (150 mM NaCl, 50 mM HEPES [pH 7.4], 5 mM ATP, and 5 mM EDTA), and then the fluorescence (excitation 380 nm and emission 460 nm) was measured every 10 min over 3 h using a microplate reader. The assay was performed with and without the proteasome inhibitor MG132 (10 μM).

SMILES: CC12CCC(C1)C(C)(C)C2O (stereo not shown) [Fenchol]
- descending order of phospho-ERK1/2 levels (FFAR2 signaling): Fenchol>Octopamine>Carvamenthenol>Camphene>Pentanone>Synephrine>Leucinamide>Carene>α-Terpineol>Breneol>L-Fenchone>D-Fenchone>Norpseudoephedrine HCl
- levels of phospho-ERK1/2 proteins (FFAR2 signaling; vs rest of selected compounds): highest in Fenchol and comparable to acetate
- proteasomal activity (proteasome; APP/PS1 mice cortex): significantly increased
- proteasomal activity (proteasome; APP/PS1 mice hippocampus): significantly increased
